# According to patent US20240190880A1 (THE REGENTS OF THE UNIVERSITY OF MICHIGAN, priority 2021, published 2024):
# Biological target: T1, ER (Homo sapiens, UniProt P03372)
# T1 construct: host or cells: T47D and MCF7 human breast cancer cells
# T1 sequence (P03372 1-595): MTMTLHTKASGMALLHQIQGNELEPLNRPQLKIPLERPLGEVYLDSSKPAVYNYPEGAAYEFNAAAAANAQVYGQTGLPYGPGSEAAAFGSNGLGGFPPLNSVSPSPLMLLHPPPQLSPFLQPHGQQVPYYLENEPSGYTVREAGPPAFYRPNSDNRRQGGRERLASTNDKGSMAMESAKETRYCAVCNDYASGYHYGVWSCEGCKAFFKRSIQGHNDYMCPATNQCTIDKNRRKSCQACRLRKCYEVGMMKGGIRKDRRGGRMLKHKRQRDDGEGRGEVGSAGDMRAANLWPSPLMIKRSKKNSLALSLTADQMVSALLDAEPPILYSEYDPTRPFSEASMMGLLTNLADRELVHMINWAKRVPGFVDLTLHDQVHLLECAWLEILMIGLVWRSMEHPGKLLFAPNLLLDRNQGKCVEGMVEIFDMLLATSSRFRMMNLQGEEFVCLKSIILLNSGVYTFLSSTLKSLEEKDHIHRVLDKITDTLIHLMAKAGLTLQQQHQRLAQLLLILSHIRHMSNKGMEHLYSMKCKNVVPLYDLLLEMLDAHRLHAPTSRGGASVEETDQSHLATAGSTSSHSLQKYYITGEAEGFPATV
# Assay: ER degradation activity, in-cell western blot analysis in T47D cells
# Format: cell-based
# Details: 16 hours, Table A does not say which cell line (T47D or MCF7), read-out: Potency (DC50)
# Method in brief: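 T47D cells cultured in DMEM with 10% FBS, treated with compounds (final 0.5% DMSO) for 16 h. ER level measured by in-cell western with anti-rabbit-680/anti-mouse-800 near-infrared detection. Relative ER percentage calculated against untreated and DMSO-treated wells set as 100%.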
row,DC50,SMILES
1,< 10 nM,"C[C@@H]1Cc2c([nH]c3ccccc23)[C@@H](c2c(F)cc(N3CCC4(CCN(C(=O)CN5Cc6cc7c(cc6C5)C(=O)N(C5CCC(=O)NC5=O)C7=O)CC4)C3)cc2F)N1CC(F)F (stereo partly drawn) [E 135, 6-(2-(2-(4-((1R,3R)-2-(2,2-difluoroethyl)-3-methyl-2,3,4,9-tetrahydro-1H-pyrido[3,4-b]indol-1-yl)-3,5-difluorophenyl)-2,8-diazaspiro[4.5]decan-8-yl)-2-oxoethyl)-2-(2,6-dioxopiperidin-3-yl)-6,7-dihydropyrrolo[3,4-f]isoindole-1,3(2H,5H)-dione]"
2,10 to 100 nM,C[C@@H]1Cc2cc(O)ccc2[C@@H](c2c(F)cc(N3CCC4(CCN(C(=O)CN5Cc6cc7c(cc6C5)C(=O)N(C5CCC(=O)NC5=O)C7)C4)CC3)cc2F)N1CC(C)(F)F (stereo partly drawn) [E 138]
3,> 100 nM,"C[C@@H]1Cc2c([nH]c3ccccc23)[C@@H](c2c(F)cc(N3CCC(CN4Cc5cc6c(cc5C4)C(=O)N(C4CCC(=O)NC4=O)C6)CC3)cc2F)N1CC(F)F (stereo partly drawn) [E 147, 3-(6-((1-(4-((1R,3R)-2-(2,2-difluoroethyl)-3-methyl-2,3,4,9-tetrahydro-1H-pyrido[3,4-b]indol-1-yl)-3,5-difluorophenyl)piperidin-4-yl)methyl)-1-oxo-3,5,6,7-tetrahydropyrrolo[3,4-f]isoindol-2(1H)-yl)piperidine-2,6-dione]"
4,< 10 nM,"O=C1CCC(N2C(=O)c3cc4c(cc3C2=O)CN(CC(=O)N2CC3(CCN(c5ccc([C@@H]6c7ccc(O)cc7CC[C@@H]6c6ccccc6)cc5)CC3)C2)C4)C(=O)N1 (stereo partly drawn) [E 148, 2-(2,6-dioxopiperidin-3-yl)-6-(2-(7-(4-((1R,2S)-6-hydroxy-2-phenyl-1,2,3,4-tetrahydronaphthalen-1-yl)phenyl)-2,7-diazaspiro[3.5]nonan-2-yl)-2-oxoethyl)-6,7-dihydropyrrolo[3,4-f]isoindole-1,3(2H,5H)-dione]"
5,< 10 nM,"O=C1CCC(N2C(=O)c3cc4c(cc3C2=O)CN(CC(=O)N2CCC3(CC2)CCN(c2ccc([C@@H]5c6ccc(O)cc6CC[C@@H]5c5ccccc5)cc2)CC3)C4)C(=O)N1 (stereo partly drawn) [E 149, 2-(2,6-dioxopiperidin-3-yl)-6-(2-(9-(4-((1R,2S)-6-hydroxy-2-phenyl-1,2,3,4-tetrahydronaphthalen-1-yl)phenyl)-3,9-diazaspiro[5.5]undecan-3-yl)-2-oxoethyl)-6,7-dihydropyrrolo[3,4-f]isoindole-1,3(2H,5H)-dione]"
6,> 100 nM,"O=C1CCC(N2C(=O)c3cc4c(cc3C2=O)CN(C2CCC3(CC2)CCN(c2ccc([C@@H]5c6ccc(O)cc6CC[C@@H]5c5ccccc5)cc2)CC3)C4)C(=O)N1 (stereo partly drawn) [E 160, 2-(2,6-dioxopiperidin-3-yl)-6-(3-(4-((1R,2S)-6-hydroxy-2-phenyl-1,2,3,4-tetrahydronaphthalen-1-yl)phenyl)-3-azaspiro[5.5]undecan-9-yl)-6,7-dihydropyrrolo[3,4-f]isoindole-1,3(2H,5H)-dione]"
7,> 100 nM,"O=C1CCC(N2C(=O)c3cc4c(cc3C2=O)CCN(CC(=O)N2CCC3(CC2)CCN(c2ccc([C@@H]5c6ccc(O)cc6CC[C@@H]5c5ccccc5)cc2)CC3)CC4)C(=O)N1 (stereo partly drawn) [E 166, 2-(2,6-dioxopiperidin-3-yl)-7-(2-(9-(4-((1R,2S)-6-hydroxy-2-phenyl-1,2,3,4-tetrahydronaphthalen-1-yl)phenyl)-3,9-diazaspiro[5.5]undecan-3-yl)-2-oxoethyl)-6,7,8,9-tetrahydroazepino[4,5-f]isoindole-1,3(2H,5H)-dione]"
8,> 100 nM,"O=C1CCC(N2C(=O)c3cc4c(cc3C2=O)CCN(C(=O)CN2CCC3(CC2)CCN(c2ccc([C@@H]5c6ccc(O)cc6CC[C@@H]5c5ccccc5)cc2)CC3)CC4)C(=O)N1 (stereo partly drawn) [E 167, 2-(2,6-dioxopiperidin-3-yl)-7-(2-(9-(4-((1R,2S)-6-hydroxy-2-phenyl-1,2,3,4-tetrahydronaphthalen-1-yl)phenyl)-3,9-diazaspiro[5.5]undecan-3-yl)acetyl)-6,7,8,9-tetrahydroazepino[4,5-f]isoindole-1,3(2H,5H)-dione]"
9,> 100 nM,"O=C1CCC(N2C(=O)c3cc4c(cc3C2=O)CCN(CC(=O)N2CC3(CCN(c5ccc([C@@H]6c7ccc(O)cc7CC[C@@H]6c6ccccc6)cc5)CC3)C2)CC4)C(=O)N1 (stereo partly drawn) [E 169, 2-(2,6-dioxopiperidin-3-yl)-7-(2-(7-(4-((1R,2S)-6-hydroxy-2-phenyl-1,2,3,4-tetrahydronaphthalen-1-yl)phenyl)-2,7-diazaspiro[3.5]nonan-2-yl)-2-oxoethyl)-6,7,8,9-tetrahydroazepino[4,5-f]isoindole-1,3(2H,5H)-dione]"
10,> 100 nM,"O=C1CCC(N2C(=O)c3cc4c(cc3C2=O)CCN(C(=O)CN2CC3(CCN(c5ccc([C@@H]6c7ccc(O)cc7CC[C@@H]6c6ccccc6)cc5)CC3)C2)CC4)C(=O)N1 (stereo partly drawn) [E 170, 2-(2,6-dioxopiperidin-3-yl)-7-(2-(7-(4-((1R,2S)-6-hydroxy-2-phenyl-1,2,3,4-tetrahydronaphthalen-1-yl)phenyl)-2,7-diazaspiro[3.5]nonan-2-yl)acetyl)-6,7,8,9-tetrahydroazepino[4,5-f]isoindole-1,3(2H,5H)-dione]"
11,> 100 nM,"O=C1CCC(N2C(=O)c3cc4c(cc3C2=O)CN(CC(=O)N2CC3(CCN(c5ccc([C@@H]6c7ccc(O)cc7CC[C@@H]6c6ccccc6)cc5)CC3)C2)CCC4)C(=O)N1 (stereo partly drawn) [E 171, 2-(2,6-dioxopiperidin-3-yl)-6-(2-(7-(4-((1R,2S)-6-hydroxy-2-phenyl-1,2,3,4-tetrahydronaphthalen-1-yl)phenyl)-2,7-diazaspiro[3.5]nonan-2-yl)-2-oxoethyl)-6,7,8,9-tetrahydroazepino[3,4-f]isoindole-1,3(2H,5H)-dione]"
12,< 10 nM,"O=C1CCC(N2C(=O)c3cc4c(cc3C2=O)CN(CC(=O)N2CCC3(CC2)CCN(c2ccc(C(=C(CCCl)c5ccccc5)c5ccc(O)cc5)cc2)CC3)C4)C(=O)N1 (stereo not drawn) [E 182, 6-(2-(9-(4-(4-chloro-1-(4-hydroxyphenyl)-2-phenylbut-1-en-1-yl)phenyl)-3,9-diazaspiro[5.5]undecan-3-yl)-2-oxoethyl)-2-(2,6-dioxopiperidin-3-yl)-6,7-dihydropyrrolo[3,4-f]isoindole-1,3(2H,5H)-dione]"
13,> 100 nM,"O=C1CCC(N2C(=O)c3cc4c(cc3C2=O)CCN(CC(=O)N2CCC3(CC2)CCN(c2ccc([C@@H]5c6ccc(O)cc6CC[C@@H]5c5ccc(F)cc5)cc2)CC3)CC4)C(=O)N1 (stereo partly drawn) [E 183, 2-(2,6-dioxopiperidin-3-yl)-7-(2-(9-(4-((1R,2S)-2-(4-fluorophenyl)-6-hydroxy-1,2,3,4-tetrahydronaphthalen-1-yl)phenyl)-3,9-diazaspiro[5.5]undecan-3-yl)-2-oxoethyl)-6,7,8,9-tetrahydroazepino[4,5-f]isoindole-1,3(2H,5H)-dione]"
14,> 100 nM,"O=C1CCC(N2C(=O)c3cc4c(cc3C2=O)CCN(CC(=O)N2CC3(CCN(c5ccc([C@@H]6c7ccc(O)cc7CC[C@@H]6c6ccc(F)cc6)cc5)CC3)C2)CC4)C(=O)N1 (stereo partly drawn) [E 184, 2-(2,6-dioxopiperidin-3-yl)-7-(2-(7-(4-((1R,2S)-2-(4-fluorophenyl)-6-hydroxy-1,2,3,4-tetrahydronaphthalen-1-yl)phenyl)-2,7-diazaspiro[3.5]nonan-2-yl)-2-oxoethyl)-6,7,8,9-tetrahydroazepino[4,5-f]isoindole-1,3(2H,5H)-dione]"
15,10 to 100 nM,"O=C1CCC(N2C(=O)c3cc4c(cc3C2=O)CN(CC(=O)N2CCC3(CC2)CCN(c2ccc([C@@H]5c6ccc(O)cc6CC[C@@H]5c5ccc(F)cc5)cc2)C3)C4)C(=O)N1 (stereo partly drawn) [E 186, 2-(2,6-dioxopiperidin-3-yl)-6-(2-(2-(4-((1R,2S)-2-(4-fluorophenyl)-6-hydroxy-1,2,3,4-tetrahydronaphthalen-1-yl)phenyl)-2,8-diazaspiro[4.5]decan-8-yl)-2-oxoethyl)-6,7-dihydropyrrolo[3,4-f]isoindole-1,3(2H,5H)-dione]"
16,10 to 100 nM,"O=C1CCC(N2C(=O)c3cc4c(cc3C2=O)CN(CC(=O)N2CC3(CCN(c5ccc(C(=C(CCCl)c6ccccc6)c6ccc(O)cc6)cc5)CC3)C2)C4)C(=O)N1 (stereo not drawn) [E 187, 6-(2-(7-(4-(4-chloro-1-(4-hydroxyphenyl)-2-phenylbut-1-en-1-yl)phenyl)-2,7-diazaspiro[3.5]nonan-2-yl)-2-oxoethyl)-2-(2,6-dioxopiperidin-3-yl)-6,7-dihydropyrrolo[3,4-f]isoindole-1,3(2H,5H)-dione]"
17,10 to 100 nM,"CCC(=C(c1ccc(O)cc1)c1ccc(N2CCC3(CCN(C(=O)CN4Cc5cc6c(cc5C4)C(=O)N(C4CCC(=O)NC4=O)C6=O)CC3)CC2)cc1)c1ccccc1 (stereo not drawn) [E 188, 2-(2,6-dioxopiperidin-3-yl)-6-(2-(9-(4-(1-(4-hydroxyphenyl)-2-phenylbut-1-en-1-yl)phenyl)-3,9-diazaspiro[5.5]undecan-3-yl)-2-oxoethyl)-6,7-dihydropyrrolo[3,4-f]isoindole-1,3(2H,5H)-dione]"
18,10 to 100 nM,"CCC(=C(c1ccc(O)cc1)c1ccc(N2CCC3(CCN(C(=O)CN4Cc5cc6c(cc5C4)C(=O)N(C4CCC(=O)NC4=O)C6=O)CC3)C2)cc1)c1ccccc1 (stereo not drawn) [E 189, 2-(2,6-dioxopiperidin-3-yl)-6-(2-(2-(4-(1-(4-hydroxyphenyl)-2-phenylbut-1-en-1-yl)phenyl)-2,8-diazaspiro[4.5]decan-8-yl)-2-oxoethyl)-6,7-dihydropyrrolo[3,4-f]isoindole-1,3(2H,5H)-dione]"
